The values that follow are results of earlier work, collected in patent US20120209535A1, “METHOD FOR GENERATING BIOMARKER REFERENCE PATTERNS” (BASF Plant Science Company GmbH, priority 2009, published 2012).

Data set [1] concerns bladder. As to conditions: known effect.
For data set [2] the following is noted: known effect.
For data set [3], the system named is liver. The settings on record: known effect.
Data set [4] relates to peroxisome proliferation.

Structures are written as SMILES. Read-outs that look alike come from different tables or passages of the source.

Consider `CC(=O)Nc1ccc2c(c1)Cc1ccccc1-2` [2-Acetylaminofluorene], for which, in data set [1], the bladder carcinogen result was “bladder carcinogen”. The immunosuppressant entry in data set [2] was “immunosuppressant”. In data set [3], the liver carcinogen entry is “liver carcinogen” and the liver enzyme inducer entry is given as “potent liver enzyme inducer”.
Consider `CC(=O)Nc1cccc2c1-c1ccccc1C2` [4-acetylaminofluorene], for which the immunosuppressant entry in data set [2] is on record as “immunosuppressant”. Besides, in data set [3], the “lipid accumulation in the liver” value is recorded as “lipid accumulation in the liver”, the liver carcinogen entry is on record as “no liver carcinogen” and the liver enzyme inducer entry is “weak liver enzyme inducer”.
On to `CCCCOC(=O)c1ccccc1C(=O)OCCCC` [dibutyl phthalate], for which the peroxisome proliferation effect entry in data set [4] was “have the abovementioned effect”.
With `Cc1cc(Cl)ccc1O[C@@H](C)C(=O)O` [mecoprop-p], in data set [4] (expert knowledge and/or literature information), the peroxisome proliferation effect result is “have the abovementioned effect”.
